Among the data in ChEMBL document CHEMBL1135890, “Structure-activity relationships of 2'-fluoro-2',3'-unsaturated D-nucleosides as anti-HIV-1 agents” (J Med Chem, 2002) are NS values, retold here.

In the assay the target is Adenosine deaminase (Bos taurus) (UniProt P56658). The assay can be described thus: Michaelis constant was determined against mammalian Adenosine deaminase; NS = not a substrate of adenosine deaminase.
Adenosine deaminase (Bos taurus), sequence (P56658 whole entry, looked up): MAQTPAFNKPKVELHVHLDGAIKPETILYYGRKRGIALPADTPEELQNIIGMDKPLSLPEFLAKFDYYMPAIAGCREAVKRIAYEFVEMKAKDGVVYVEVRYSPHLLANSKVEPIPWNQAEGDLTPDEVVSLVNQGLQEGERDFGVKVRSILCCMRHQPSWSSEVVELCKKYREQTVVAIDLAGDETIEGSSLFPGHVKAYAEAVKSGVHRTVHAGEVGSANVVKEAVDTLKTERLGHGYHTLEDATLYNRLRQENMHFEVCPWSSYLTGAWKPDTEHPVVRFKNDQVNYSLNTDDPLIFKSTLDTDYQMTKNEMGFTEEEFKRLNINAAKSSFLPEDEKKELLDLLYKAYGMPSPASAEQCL

Regarding `Nc1ncnc2c1ncn2[C@@H]1O[C@H](CO)C=C1F`, the NS result is “Not a substrate”.
